One assay concerns the target T1, PfPanK1 (Plasmodium falciparum, UniProt Q8ILP4).
T1 sequence (Q8ILP4 1-519): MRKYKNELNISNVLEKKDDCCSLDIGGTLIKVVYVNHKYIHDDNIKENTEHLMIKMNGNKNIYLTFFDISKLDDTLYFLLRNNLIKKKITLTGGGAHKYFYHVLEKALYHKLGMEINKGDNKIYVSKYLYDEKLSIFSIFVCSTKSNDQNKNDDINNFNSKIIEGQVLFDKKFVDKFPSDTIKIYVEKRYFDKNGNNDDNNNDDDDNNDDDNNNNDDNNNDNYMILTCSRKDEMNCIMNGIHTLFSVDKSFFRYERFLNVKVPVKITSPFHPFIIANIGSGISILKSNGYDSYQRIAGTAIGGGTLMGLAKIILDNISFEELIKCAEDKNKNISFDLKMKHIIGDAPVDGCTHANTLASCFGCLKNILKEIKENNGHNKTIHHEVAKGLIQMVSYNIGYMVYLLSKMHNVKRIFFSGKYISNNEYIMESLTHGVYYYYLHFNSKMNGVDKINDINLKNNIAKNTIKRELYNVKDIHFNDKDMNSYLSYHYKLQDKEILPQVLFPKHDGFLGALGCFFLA
Kind of assay: Screening of natural compounds for PfPanK inhibitors and IC50 determination (recombinant enzyme, ADP Hunter Plus). Format: biochemical.

The subject of assay [1] is P. falciparum K1 and FCR3 strain. Particulars: cited from earlier work.
The test system of assay [2] is Plasmodium falciparum sensitive strain 3D7. Kind of assay: P. falciparum asexual blood stage growth, diaphorase-coupled LDH assay. Format: cell-based. Particulars: 3D7, 72 h incubation, mean ± SEM, read-out: IC50 P. falciparum erythrocytic stages.
Method: Before using, parasite culture was synchronized with 5% (w/v) d-sorbitol, as previously described ([Lambros and Vanderberg, 1979]). Ring stage 0.3% parasitemia (25 µl/well) were placed in a 384-well plate. Serial dilutions (50, 25, 12.5, 6.3, 3.1, 1.6, 0.8, and 0.4 μM) of each compound were used for calculating IC50. As the negative growth control, 50 µM of Mefloquine and 20 µM of Atovaquone were used. After 72 h of incubation, parasite growth was determined by diaphorase-coupled lactate dehydrogenase (LDH) assay, as previously described ([Hartuti et al., 2018]). Each well’s absorbance was measured at 650 nm using SpectraMax Paradigm®Multi-Mode microplate reader (Molecular Devices, San Jose, CA, USA). The IC50 values were analyzed and calculated with GraphPad PRISM 8.0 (San Diego, California USA).
The next assay concerns various human cell lines. Set-up: method as in Koizumi et al., 2009. Particulars: ref Koizumi et al., 2009; cited from earlier work.
[3] abbreviates: recombinant PfPanK1; mean ± SEM.

inhibition, IC50 and EC50 data for three compounds are collected here from paper PMC7985445, “Characterization of Plasmodium falciparum Pantothenate Kinase and Identification of Its Inhibitors From Natural Products” (Frontiers in Cellular and Infection Microbiology, 2021).

Molecules are shown by their SMILES. Read-outs that look alike come from different tables or passages of the source.

Method for PfPanK1: We screened 247 compounds from the Kitasato Natural Products Library ([Mori et al., 2015]; [Nurkanto et al., 2018]) against PfPanK recombinant enzyme. Compounds were dissolved in 50% DMSO at a final concentration of 1 mg/ml.

Regarding `CC(=O)Oc1cccc2c(=O)c3c4c(c(=[N+]=[N-])c=3c(=O)c12)C(OC(C)=O)C(C)(OC(C)=O)C(OC(C)=O)C4OC(C)=O` (stereo not shown) [Diacetylkinamycin C], the inhibition at PfPanK1 (primary screening; 37°C, 2 h) amounted to 96.1%. Besides, the IC50 at PfPanK1 (setting [3]) is 36200 ± 4700 nM; in assay [1] (FCR3 strain, ref Shimizu el al., 2019, unpublished, read-out: IC50 P. falciparum erythrocytic stages), 1100 nM; in assay [1] (K1 strain, ref Shimizu el al., 2019, unpublished, read-out: IC50 P. falciparum erythrocytic stages), 2200 nM; in assay [1] (range over drug-resistant K1 and drug-sensitive FCR3 strain, ref Shimizu et al., 2019, unpublished, read-out: IC50 against P. falciparum), 1100 to 2200 nM.
With `OC[C@H]1O[C@@H](Oc2ccc(/C=C/c3cc(O)c4c(c3)O[C@H](c3ccc(O)cc3)[C@H]4c3cc(O)cc(O)c3)cc2)[C@H](O)[C@@H](O)[C@@H]1O` [Gnemonoside D], the inhibition on PfPanK1 (primary screening; 37°C, 2 h) came to 85%. In addition, the IC50 on PfPanK1 (setting [3]) was determined as 57500 ± 3600 nM; in assay [2], 1900 ± 600 nM.
For `COc1c2c(c(O)c3c(=O)c4c(oc13)[C@@H](O)CC[C@@H]4O)-c1c3c(c4cc(C)n(C)c(=O)c4c1O)OCO[C@H]3C2` [Simaomicin α], the inhibition at PfPanK1 (2 h, primary screening; 37°C) worked out at 76.9%. In addition, the IC50 at PfPanK1 (setting [3]) is 57600 ± 4800 nM; in assay [1] (FCR3 strain, ref Ui et al., 2007, read-out: IC50 P. falciparum erythrocytic stages), 0.018 nM; in assay [1] (K1 strain, ref Ui et al., 2007, read-out: IC50 P. falciparum erythrocytic stages) it was 0.083 nM. Further, in the assay on various human cell lines, the EC50 was 0.3 to 19 nM.

The term inhibition denotes how much of the control response was suppressed. What is called IC50 is the concentration that gives 50% inhibition. The EC50 is the midpoint of the concentration-response curve.
